# Test results as given in patent US10961238B2, “Modulators of hedgehog (Hh) signaling pathway” (E-THERAPEUTICS PLC, priority 2016, dated 2021).
# System: C3H10T1/2 cells
# Assay: C3H assay: differentiation of C3H10T1/2 cells by mSHH, measurement of alkaline phosphatase
# Format: cell-based, mouse
# Conditions: Mus musculus, C3H 10T1/2; C3H10T1/2 cells stimulated with mSHH for 72 hours; alkaline phosphatase activity; read-out: IC50 Ranges
row,Compound,IC50 [nM]
1,"CC(C)(C)OC(=O)N1CCC(S(=O)(=O)N2CC=C(c3c[nH]c4ncncc34)CC2)CC1 [Compound 233, tert-butyl 4-[[4-(7H-pyrrolo[2,3-d]pyrimidin-5-yl)-3,6-dihydro-2H-pyridin-1-yl]sulfonyl] piperidine-1-carboxylate]",1000 to 10000
2,"CC(C)(C)OC(=O)N1CC(S(=O)(=O)N2CC=C(c3cnc4occc4c3)CC2)C1 [Compound 234, tert-butyl 3-[(4-furo[2,3-b]pyridin-5-yl-3,6-dihydro-2H-pyridin-1-yl)sulfonyl]aze tidine-1-carboxylate]",100 to 1000
3,"Cc1ccc(S(=O)(=O)n2cc(C3=CCN(S(=O)(=O)C4CCN(C(=O)OC(C)(C)C)CC4)CC3)c3cncnc32)cc1 [Compound 235, tert-butyl 4-[[4-[7-(4-methylphenyl)sulfonylpyrrolo[2,3-d]pyrimidin-5-yl]-3,6-dihydro-2H-pyridin-1-yl]sulfonyl] piperidine-1-carboxylate]",100 to 1000
4,"CC(C)(C)OC(=O)N1CCC(S(=O)(=O)N2CC=C(c3ccnc4[nH]ccc34)CC2)CC1 [Compound 236, tert-butyl 4-[[4-(1H-pyrrolo[2,3-b]pyridin-4-yl)-3,6-dihydro-2H-pyridin-1-yl]sulfonyl] piperidine-1-carboxylate]",1000 to 10000
5,"Cc1ccc(S(=O)(=O)n2ccc3c(C4=CCN(S(=O)(=O)C5CCN(C(=O)OC(C)(C)C)CC5)CC4)ccnc32)cc1 [Compound 237, tert-butyl 4-[[4-[1-(4-methylphenyl)sulfonylpyrrolo [2,3-b]pyridin-dihydro-2H-pyridin-1-yl]sulfonyl]piperidine-1-carboxylate]",100 to 1000
6,"CC(C)(C)OC(=O)N1CCC(S(=O)(=O)N2CC=C(c3ncnc4[nH]ccc34)CC2)CC1 [Compound 238, tert-butyl 4-[[4-(7H-pyrrolo[2,3-d]pyrimidin-4-yl)-3,6-dihydro-2H-pyridin-1-yl]sulfonyl] piperidine-l-carboxylate]",1000 to 10000
7,"Cc1cc(C#N)ccc1N1CCN(S(=O)(=O)C2CN(C(=O)OC(C)(C)C)C2)CC1 [Compound 240, tert-butyl 3-[4-(4-cyano-2-methylphenyl)piperazin-1-yl]sulfonylaze-tidine-1-carboxylate]",1000 to 10000
8,"COC(=O)c1csc(N2CC(S(=O)(=O)N3CCC(c4c[nH]c5ncccc45)CC3)C2)n1 [Compound 241, methyl 2-[3-[4-(1H-pyrrolo[2,3-b]pyridin-3-yl)piperidin-1-yl]sulfonylaze-tidin-1-yl]-1,3-thiazole-4-carboxylate]",100 to 1000
9,"N#Cc1ccnc(N2CC(S(=O)(=O)N3CCC(c4c[nH]c5ncccc45)CC3)C2)c1 [Compound 242, 2-[3-[4-(1H-pyrrolo[2,3-b]pyridin-3-yl)piperidin-1-yl]sulfonylaze-tidin-1-yl] pyridine-4-carbonitrile]",10 to 100
10,"CCOc1cccc(N2CC(S(=O)(=O)N3CCC(c4c[nH]c5ncccc45)CC3)C2)n1 [Compound 243, 3-[1-[1-(6-ethoxypyridin-2-yl)azetidin-3-yl]sulfonylpiper-idin-4-yl]-1H-pyrrolo[2,3-b]pyridine]",10 to 100
11,"COC(=O)c1cnc(N2CC(S(=O)(=O)N3CCC(c4c[nH]c5ncccc45)CC3)C2)s1 [Compound 245, methyl 2-[3-[4-(1H-pyrrolo[2,3-b]pyridin-3-yl)piperidin-1-yl]sulfonylaze-tidin-1-yl]-1,3-thiazole-5-carboxylate]",100 to 1000
12,"COC(=O)c1coc(N2CC(S(=O)(=O)N3CCC(c4c[nH]c5ncccc45)CC3)C2)n1 [Compound 246, methyl 2-[3-[4-(1H-pyrrolo[2,3-b]pyridin-3-yl)piperidin-1-yl]sulfonylaze-tidin-1-yl]-1,3-oxazole-4-carboxylate]",100 to 1000
13,"CN(C)CC1(CN2CC(S(=O)(=O)N3CCC(c4c[nH]c5ncccc45)CC3)C2)CCCC1 [Compound 247, N,N-dimethyl-1-[1-[[3-[4-(1H-pyrrolo[2,3-b]pyridin-3-yl)piperidin-1-yl]sulfonylaze-tidin-1-yl]methyl]cyclopentyl] methanamine]",1000 to 10000
14,"CC(C)[C@H](CO)NC(=O)N1CC(S(=O)(=O)N2CCC(c3c[nH]c4ncccc34)CC2)C1 [Compound 251, N-[(2R)-1-hydroxy-3-methylbutan-2-yl]-3-[4-(1H-pyrrolo[2,3-b]pyridin-3-yl)piperidin-1-yl]sulfonylaze-tidine-1-carboxamide]",10 to 100
15,"COc1ccnc(N2CC(S(=O)(=O)N3CCC(c4c[nH]c5ncccc45)CC3)C2)c1C#N [Compound 252, 4-methoxy-2-[3-[4-(1H-pyrrolo [2,3-b]pyridin-3-yl)piperidin-1-yl]sulfonylaze-tidin-1-yl]pyridine-3-carbonitrile]",100 to 1000
16,"O=S(=O)(C1CN(c2ncccc2F)C1)N1CCC(c2c[nH]c3ncccc23)CC1 [Compound 253, 3-[1-[1-(3-fluoropyridin-2-yl)azetidin-3-yl]sulfonylpiper-idin-4-yl]-1H-pyrrolo[2,3-b]pyridine]",10 to 100
17,"Cc1cccnc1N1CC(S(=O)(=O)N2CCC(c3c[nH]c4ncccc34)CC2)C1 [Compound 254, 3-[1-[1-(3-methylpyridin-2-yl)azetidin-3-yl]sulfonylpiper-idin-4-yl]-1H-pyrrolo[2,3-b]pyridine]",10 to 100
18,"CC(C)(O)c1cccnc1N1CC(S(=O)(=O)N2CCC(c3c[nH]c4ncccc34)CC2)C1 [Compound 255, 2-[2-[3-[4-(1H-pyrrolo[2,3-b]pyridin-3-yl)piperidin-1-yl]sulfonylaze-tidin-1-yl]pyridin-3-yl]propan-2-ol]",10 to 100
19,"Cc1ccnc(N2CC(S(=O)(=O)N3CCC(c4c[nH]c5ncccc45)CC3)C2)c1 [Compound 257, 3-[1-[1-(4-methylpyridin-2-yl)azetidin-3-yl]sulfonylpiper-idin-4-yl]-1H-pyrrolo[2,3-b]pyridine]",10 to 100
20,"N#Cc1ccnc(N2CC(S(=O)(=O)N3CCC(c4ccncc4)CC3)C2)c1 [Compound 258, 2-[3-(4-pyridin-4-ylpiperidin-1-yl)sulfonylaze-tidin-1-yl]pyridine-4-carbonitrile]",1000 to 10000
21,"O=S(=O)(C1CN(c2ncccc2CO)C1)N1CCC(c2ccncc2)CC1 [Compound 259, [2-[3-(4-pyridin-4-ylpiperidin-1-yl)sulfonylaze-tidin-1-yl]pyridin-3-yl]methanol]",1000 to 10000
22,"CCOC(=O)c1coc(N2CC(S(=O)(=O)N3CCC(c4ccncc4)CC3)C2)n1 [Compound 260, ethyl 2-[3-(4-pyridin-4-ylpiperidin-1-yl)sulfonylaze-tidin-1-yl]-1,3-oxazole-4-carboxylate]",1000 to 10000

# Results, then the compound that gave them:
row,IC50 [nM],Compound
1,1000 to 10000,"NC(=O)c1coc(N2CC(S(=O)(=O)N3CCC(c4ccncc4)CC3)C2)n1 [Compound 261, 2-[3-[[4-(4-pyridyl)-1-piperidyl]sulfonyl]azetidin-1-yl]oxazole-4-carboxamide]"
2,100 to 1000,"Cc1noc(C)c1NC(=O)N1CC(S(=O)(=O)N2CCC(c3ccncc3)CC2)C1 [Compound 262, N-(3,5-dimethyl-1,2-oxazol-4-yl)-3-(4-pyridin-4-ylpiperidin-1-yl)sulfonylaze-tidine-1-carboxamide]"
3,100 to 1000,"CC[C@@H](C)OC(=O)N1CC(S(=O)(=O)N2CCC(c3ccncc3)CC2)C1 [Compound 263, [(2R)-butan-2-yl]3-(4-pyridin-4-ylpiperidin-1-yl)sulfonylaze-tidine-1-carboxylate]"
4,100 to 1000,"O=C(OC1CCCCC1)N1CC(S(=O)(=O)N2CCC(c3ccncc3)CC2)C1 [Compound 264, cyclohexyl 3-(4-pyridin-4-ylpiperidin-1-yl)sulfonylaze-tidine-1-carboxylate]"
5,100 to 1000,"O=C(NC1(C(F)(F)F)CC1)N1CC(S(=O)(=O)N2CCC(c3ccncc3)CC2)C1 [Compound 265, 3-(4-pyridin-4-ylpiperidin-1-yl)sulfonyl-N-[1-(trifluoromethyl)-cyclopropyl] azetidine-1-carboxamide]"
6,100 to 1000,"O=C(OCC1CCCCC1)N1CC(S(=O)(=O)N2CCC(c3ccncc3)CC2)C1 [Compound 266, cyclohexylmethyl 3-(4-pyridin-4-ylpiperidin-1-yl)sulfonylaze-tidine-1-carboxylate]"
7,1000 to 10000,"Cc1ccc(-n2cc(C3CCN(S(=O)(=O)C4CNC4)CC3)c3cccnc32)nc1 [Compound 267, 3-[1-(azetidin-3-ylsulfonyl)piper-idin-4-yl]-1-(5-methylpyridin-2-yl)pyrrolo [2,3-b]pyridine]"
8,1000 to 10000,"O=S(=O)(C1CN(c2ccccn2)C1)N1CCC(c2ccncc2)CC1 [Compound 268, 2-[3-(4-pyridin-4-ylpiperidin-1-yl)sulfonylaze-tidin-1-yl]pyridine]"
9,100 to 1000,"O=S(=O)(C1CN(c2cccnc2)C1)N1CCC(c2c[nH]c3ncccc23)CC1 [Compound 270, 3-[1-(1-pyridin-3-ylazetidin-3-yl)-sulfonylpiper-idin-4-yl]-1H-pyrrolo[2,3-b]pyridine]"
10,10 to 100,"CN(C(=O)N1CCC(S(=O)(=O)N2CCC(c3c[nH]c4ncccc34)CC2)C1)C(C)(C)C (stereo not drawn) [Compound 272, N-tert-butyl-N-methyl-3-[4-(1H-pyrrolo[2,3-b]pyridin-3-yl)piperidin-1-yl]sulfonylpyrr olidine-1-carboxamide]"
11,100 to 1000,COC(=O)[C@H]1C[C@@H](S(=O)(=O)N2CCC(c3c[nH]c4ncccc34)CC2)C1 [Compound 273]
12,100 to 1000,"COc1cccc(NC(=O)N2CC(S(=O)(=O)N3CCC(c4c[nH]c5ncccc45)CC3)C2)c1 [Compound 275, N-(3-methoxyphenyl)-3-[4-(1H-pyrrolo[2,3-b]pyridin-3-yl)piperidin-1-yl]sulfonylaze-tidine-1-carboxamide]"
13,100 to 1000,"Cc1ccc(NC(=O)N2CC(S(=O)(=O)N3CCC(c4c[nH]c5ncccc45)CC3)C2)cc1 [Compound 276, N-(4-methylphenyl)-3-[4-(1H-pyrrolo[2,3-b]pyridin-3-yl)piperidin-1-yl]sulfonylaze-tidine-1-carboxamide]"
14,10 to 100,"Cc1ccc(F)cc1NC(=O)N1CC(S(=O)(=O)N2CCC(c3c[nH]c4ncccc34)CC2)C1 [Compound 277, N-(5-fluoro-2-methylphenyl)-3-[4-(1H-pyrrolo[2,3-b]pyridin-3-yl)piperidin-1-yl]sulfonylaze-tidine-1-carboxamide]"
